Here are results for two compounds from patent US20030022812A1, “Treating pain by targeting hyperpolarization-activated, cyclic nucleotide-gated channels” (priority 2001, published 2003).

In one experiment the target is T1, human HCN3 (Homo sapiens, UniProt Q9P1Z3).
T1 construct: expressed in transfected cells; host or cells: HEK293 cells stably transfected with hHCN3-pcDNA3.1 Zeo
T1 sequence (Q9P1Z3 1-774): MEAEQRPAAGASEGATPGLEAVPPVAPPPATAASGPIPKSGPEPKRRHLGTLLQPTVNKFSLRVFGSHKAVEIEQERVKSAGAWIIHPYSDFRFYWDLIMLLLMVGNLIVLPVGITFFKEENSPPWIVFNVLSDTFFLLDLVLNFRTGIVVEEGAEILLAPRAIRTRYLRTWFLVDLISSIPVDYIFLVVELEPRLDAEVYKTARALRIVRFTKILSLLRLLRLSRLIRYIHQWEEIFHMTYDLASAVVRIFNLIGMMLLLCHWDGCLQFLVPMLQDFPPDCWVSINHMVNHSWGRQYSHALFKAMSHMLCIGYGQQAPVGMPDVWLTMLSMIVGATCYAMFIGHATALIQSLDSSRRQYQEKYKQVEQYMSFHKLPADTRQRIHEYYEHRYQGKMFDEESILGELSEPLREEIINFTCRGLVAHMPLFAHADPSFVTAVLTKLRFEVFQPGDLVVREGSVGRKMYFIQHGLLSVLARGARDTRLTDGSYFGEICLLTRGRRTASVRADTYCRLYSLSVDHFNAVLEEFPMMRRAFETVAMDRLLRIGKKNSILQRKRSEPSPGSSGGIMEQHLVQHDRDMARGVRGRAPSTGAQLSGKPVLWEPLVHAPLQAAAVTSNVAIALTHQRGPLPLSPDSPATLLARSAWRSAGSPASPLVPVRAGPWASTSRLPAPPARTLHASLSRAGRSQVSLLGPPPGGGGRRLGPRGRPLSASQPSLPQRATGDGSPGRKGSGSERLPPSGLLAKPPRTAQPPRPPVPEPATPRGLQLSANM
The experiment is described as follows: Whole cell patch clamp of HEK293 cells stably expressing human HCN3. To be noted: for reversibility of HCN3 current block: ZD7288: washout of at least 15 min. In kind it is cell-based. (In general: Patch clamp records ionic current or voltage across a cell membrane.)

The test system of a further experiment is normal rats. Description: 55° C. hot plate test of acute thermally-evoked pain. The experiment is classed as in vivo, rat. To be noted: 10 mg/kg i.p. Here is the method:
A cutoff of 20 seconds of thermal surface exposure was employed to prevent tissue damage. Drug administration: Normal rats were administered ZD7288, 10 mg/kg, or an equivalent volume of saline, i.p. at time 0. Behavioral assessments were performed at 45, 60 and 75 minutes after drug administration.

Experiment [1] has as its system rat complete Freund's adjuvant (CFA) model of hindpaw inflammation. The experiment is described as follows: Thermal hyperalgesia (modified Hargreaves apparatus) in rat CFA model of hindpaw inflammation. In kind it is in vivo. The note with it: 10 mg/kg i.p. Here is the method:
However, blockade of HCN channels with ZD7288 at 10 mg/kg, i.p., had no effect on thermal hyperalgesia (measured using a modified Hargreaves apparatus) in two different models of inflammatory pain: the rat carrageenan model of hindpaw inflammation, and the rat complete Freund's adjuvant (CFA) model of hindpaw inflammation. As shown supra, HCN blockade also had little effect on acute thermally evoked pain in the hot plate test.

The subject of experiment [2] is rat mild thermal injury model. Description: Spontaneous pain behaviors in rat mild thermal injury (first-degree burn) model. The experiment is classed as in vivo. The note with it: 30 and 60 min after i.p. administration.
The test system of a further experiment is Ih in large DRG neurons. The experiment is described as follows: Whole cell patch clamp of Ih in dissociated large L5 DRG neurons of SNL and control rats. In kind it is cell-based, rat. The note with it: Cs+ 3 mM extracellular; ZD7288 50 μM. Here is the method: Methods: Rats were prepared according to the above SNL model (L5 ligation). Sham rats were prepared identically, but without resection of the transverse process to avoid nerve trauma, and without nerve ligation. After 7 days, rats were killed by cervical dislocation and the ipsilateral L4 (no ligation) and L5 DRGs were quickly excised with fine forceps under a stereomicroscope and placed in ice cold Tyrode's containing pen/strep antibiotics.
Dissociation and culture of DRG neurons: DRGs from the L5 level of SNL, sham ligated and naive rats, and the L4 level of SNL rats were removed and maintained in ice-cold Tyrode's solution (140 mM NaCl, 4 mM KCl, 2 mM CaCl2, 1.3 mM MgCl2, 10 mM D-glucose, 10 mM HEPES, pH adjusted to 7.4 with NaOH) with additional 2 mM Ca^+2 (Tyrode's) prior to dissociation. […]
Current and voltage signals were detected and filtered at 2 kHz with an Axopatch 1D patch-clamp amplifier (Axon Instruments, Foster City, Calif.), digitally recorded with a DigiData 1200B laboratory interface (Axon Instruments), and PC compatible computer system and stored on magnetic disk for off-line analysis. […]

For `CCN(c1ccccc1)c1cc(=NC)n(C)c(C)n1.Cl` [ZD7288], at human HCN3 (50 μM, n=3), the “block of HCN3 hyperpolarization-induced currents” value is reported as 98+/−2%. Besides, on human HCN3, the “reversibility of HCN3 current block” value is given as “did not reverse”. For the same compound, the “effect on acute thermally-evoked pain” value in the experiment with normal rats is given as “minimal effect”. Besides, the “hot plate latency, difference versus saline” value in the experiment with normal rats (45 or 60 min) is “No statistically significant difference”; with normal rats (75 min), “approximately 15%”. Besides, the “effect on thermal hyperalgesia” value in experiment [1] is on record as “no effect”. Moreover, the “suppression of spontaneous pain behaviors” value in experiment [2] was “near complete suppression”. Also, in the experiment on Ih in large DRG neurons, the “block of Ih in large DRG neurons” value is reported as “efficacious block”.
For the compound `[Cl-].[Cs+]` [Cs^+, CsCl], on human HCN3 (3 mM CsCl), the “block of HCN3 hyperpolarization-induced inward currents” value is reported as “completely blocked”. For the same compound, at human HCN3, the “reversibility of HCN3 current block” value is listed as “rapidly reversible”. In addition, the “block of Ih in large DRG neurons” value in the experiment with Ih in large DRG neurons was “efficacious block”.
